According to patent publication US4959460A, “3'-deamino-3'-(2"-substituted-4"-morpholino)-anthracycline compounds” (priority 1988, dated 1990):
Values after ≈ are worked out from the molar mass of the structure shown.

Key:
[1] = tested on: P388 mouse leukemia cells; assay: Anti-proliferative activity against cultivated P388 mouse leukemia cells; format: cell-based; details: P388 cells 5×10^4 cells/ml, RPMI 1640, 10% fetal bovine serum, 37° C., read-out: 50% proliferation-inhibitory concentration (IC50)
Description: (1) Anti-proliferative activity against cultivated P388 mouse leukemia cells:
More specifically, a medium RPMI 1640 (Rosewell Park Memorial Institute medium 1640) containing a given amount of the 3'-deamino-3'-(2"-substituted-4"-morpholino) anthracycline compound and 10% fetal bovine serum was inoculated with cultivated P388 5×10^4 cells/ml. Incubation was carried out at 37° C. in a CO2 incubator, and the number of the cells in each medium was then counted to determine 50% proliferation-inhibitory concentration (IC50, ng/ml) relative to the control (no test compounds added).

[2] = tested on: P388 leukemia; assay: Antitumor activity against P388 leukemia intraperitoneally transplanted into CDF2 mice; format: in vivo; details: for T/C: control = 100
Description: The effects of the test anthracycline compounds are shown below in terms of T/C (%), the survival days of the control mice to which physiological saline solutions was administered being specified as 100.

[3] = 0.125 mg/kg i.v., day 1 and day 5
[4] = 0.25 mg/kg i.v., day 1 and day 5
[5] = 0.5 mg/kg i.v., day 1 and day 5
[6] = 1 mg/kg i.v., administered only day 1
[7] = 16 mg/kg i.v., administered only day 1
[8] = 2 mg/kg i.v., administered only day 1
[9] = 4 mg/kg i.v., administered only day 1
[10] = 0.29 mg/kg i.v., day 1 and day 5
[11] = 0.44 mg/kg i.v., day 1 and day 5
[12] = 0.66 mg/kg i.v., day 1 and day 5
[13] = 0.99 mg/kg i.v., day 1 and day 5
[14] = 1.48 mg/kg i.v., day 1 and day 5
[15] = 2.22 mg/kg i.v., day 1 and day 5
[16] = 3.33 mg/kg i.v., day 1 and day 5
[17] = 5.00 mg/kg i.v., day 1 and day 5

Which IC50 [1] does the source give for CC[C@@]1(O)C[C@H](O[C@H]2C[C@H](N3CCO[C@H](OC)C3)[C@H](O)[C@H](C)O2)c2c(O)c3c(c(O)c2[C@H]1O)C(=O)c1cccc(O)c1C3=O [3'-Deamino-3'-[(2"S)-2"-methoxy-4"-morpholino]-13-deoxo-10-hydroxycarminomycin] here?
The IC50 was 0.018 µg/mL (≈ 0.0292 µM).

What about the “Number of cured mice/Number of test mice” value [2, 3] of the same compound?
Its value is 0/6.

What about the T/C [2, 3] of the same compound?
Its T/C is 103%.

What about the “Number of cured mice/Number of test mice” value [2, 4] of the same compound?
The value was 0/6.

And the T/C [2, 4]?
The T/C was 182%.

And the “Number of cured mice/Number of test mice” value [2, 5]?
The value was 0/6.

And the T/C [2, 5]?
Its T/C is 196%.

And the “Number of cured mice/Number of test mice” value [2, 6]?
Its value is 0/6.

What about the T/C [2, 6] of the same compound?
The T/C was 182%.

For CC[C@@]1(O)C[C@H](O[C@H]2C[C@H](N3CCO[C@@H](NC(=O)C(F)(F)F)C3)[C@H](O)[C@H](C)O2)c2c(O)c3c(c(O)c2[C@H]1O)C(=O)c1cccc(O)c1C3=O [3'-Deamino-3'-[(2"R)-2"-trifluoroacetamido-4"-morpholino]-13-deoxo-10-hydroxycarminomycin], which IC50 [1] is on record?
The IC50 was 0.0225 µg/mL (≈ 0.0323 µM).

And the “Number of cured mice/Number of test mice” value ([2]; 2 mg/kg i.v., day 1 and day 5)?
Its value is 0/6.

What about the T/C ([2]; 2 mg/kg i.v., day 1 and day 5) of the same compound?
Its T/C is 120%.

And the “Number of cured mice/Number of test mice” value ([2]; 4 mg/kg i.v., day 1 and day 5)?
The value was 0/6.

And the T/C ([2]; 4 mg/kg i.v., day 1 and day 5)?
The T/C was 150%.

What about the “Number of cured mice/Number of test mice” value ([2]; 8 mg/kg i.v., day 1 and day 5) of the same compound?
Its value is 0/6.

What about the T/C ([2]; 8 mg/kg i.v., day 1 and day 5) of the same compound?
The T/C was 165%.

What about the “Number of cured mice/Number of test mice” value ([2]; 16 mg/kg i.v., day 1 and day 5) of the same compound?
The value was 2/6.

And the T/C ([2]; 16 mg/kg i.v., day 1 and day 5)?
The T/C was 319%.

With CC[C@@]1(O)C[C@H](O[C@H]2C[C@H](N3CCO[C@H](CCl)C3)[C@H](O)[C@H](C)O2)c2c(O)c3c(c(O)c2[C@H]1O)C(=O)c1cccc(O)c1C3=O [3'-Deamino-3'-[(2"S)-2"-chloromethyl-4"-morpholino]-13-deoxo-10-hydroxycarminomycin] as the compound, how does the IC50 [1] read?
Its IC50 is 0.036 µg/mL (≈ 0.0568 µM).

CC[C@@]1(O)C[C@H](O[C@H]2C[C@H](N3CCO[C@H](NC(C)=O)C3)[C@H](O)[C@H](C)O2)c2c(O)c3c(c(O)c2[C@H]1O)C(=O)c1cccc(O)c1C3=O [3'-Deamino-3'-[(2"S)-2"-acetamido-4"-morpholino]-13-deoxo-10-hydroxycarminomycin] was tested. Which IC50 [1] did it give?
Its IC50 is 0.083 µg/mL (≈ 0.129 µM).

And the “Number of cured mice/Number of test mice” value ([2]; 2 mg/kg i.v., day 1 and day 5)?
The value was 0/6.

And the T/C ([2]; 2 mg/kg i.v., day 1 and day 5)?
Its T/C is 124%.

What about the “Number of cured mice/Number of test mice” value ([2]; 4 mg/kg i.v., day 1 and day 5) of the same compound?
The value was 0/6.

And the T/C ([2]; 4 mg/kg i.v., day 1 and day 5)?
The T/C was 124%.

And the “Number of cured mice/Number of test mice” value ([2]; 8 mg/kg i.v., day 1 and day 5)?
The value was 0/6.

And the T/C ([2]; 8 mg/kg i.v., day 1 and day 5)?
Its T/C is 146%.

What about the “Number of cured mice/Number of test mice” value ([2]; 16 mg/kg i.v., day 1 and day 5) of the same compound?
The value was 0/6.

And the T/C ([2]; 16 mg/kg i.v., day 1 and day 5)?
Its T/C is 340%.

How did the IC50 [1] turn out when CC[C@@]1(O)C[C@H](O[C@H]2C[C@H](N3CCO[C@@H](N=[N+]=[N-])C3)[C@H](O)[C@H](C)O2)c2c(O)c3c(c(O)c2[C@H]1O)C(=O)c1cccc(O)c1C3=O [3'-Deamino-3'-[(2"R)-2"-azido-4"-morpholino]-13-deoxo-10-hydroxycarminomycin] was run?
The IC50 was 0.0189 µg/mL (≈ 0.0302 µM).

What about the “Number of cured mice/Number of test mice” value [2, 4] of the same compound?
The value was 0/6.

And the T/C [2, 4]?
The T/C was 115%.

What about the “Number of cured mice/Number of test mice” value [2, 5] of the same compound?
The value was 0/6.

And the T/C [2, 5]?
The T/C was 163%.

And the “Number of cured mice/Number of test mice” value ([2]; 1 mg/kg i.v., day 1 and day 5)?
The value was 0/6.

What about the T/C ([2]; 1 mg/kg i.v., day 1 and day 5) of the same compound?
Its T/C is 196%.

What about the “Number of cured mice/Number of test mice” value ([2]; 2 mg/kg i.v., day 1 and day 5) of the same compound?
The value was 0/6.

What about the T/C ([2]; 2 mg/kg i.v., day 1 and day 5) of the same compound?
The T/C was 294%.

And the “Number of cured mice/Number of test mice” value ([2]; 4 mg/kg i.v., day 1 and day 5)?
The value was 0/6.

And the T/C ([2]; 4 mg/kg i.v., day 1 and day 5)?
Its T/C is 124%.

Which IC50 [1] does the source give for CC[C@@]1(O)C[C@H](O[C@H]2C[C@H](N3CCO[C@H](CO)C3)[C@H](O)[C@H](C)O2)c2c(O)c3c(c(O)c2[C@H]1O)C(=O)c1cccc(O)c1C3=O [3'-Deamino-3'-[(2"S) -2"-hydroxymethyl-4"-morpholino]-13-deoxo-10-hydroxycarminomycin] here?
Its IC50 is 0.02 µg/mL (≈ 0.0325 µM).

Which IC50 [1] does the source give for CC[C@@]1(O)C[C@H](O[C@H]2C[C@H](N3CCO[C@H](NC(=O)C(F)(F)F)C3)[C@H](O)[C@H](C)O2)c2c(O)c3c(c(O)c2[C@H]1O)C(=O)c1cccc(O)c1C3=O [3'-Deamino-3'-[(2"S)-2"-trifluoroacetamido-4"-morpholino]-13-deoxo-10-hydroxycarminomycin] here?
Its IC50 is 0.052 µg/mL (≈ 0.0746 µM).

What about the “Number of cured mice/Number of test mice” value ([2]; 2 mg/kg i.v., day 1 and day 5) of the same compound?
Its value is 0/6.

And the T/C ([2]; 2 mg/kg i.v., day 1 and day 5)?
The T/C was 136%.

What about the “Number of cured mice/Number of test mice” value ([2]; 4 mg/kg i.v., day 1 and day 5) of the same compound?
The value was 0/6.

And the T/C ([2]; 4 mg/kg i.v., day 1 and day 5)?
The T/C was 181%.

What about the “Number of cured mice/Number of test mice” value ([2]; 8 mg/kg i.v., day 1 and day 5) of the same compound?
Its value is 0/6.

What about the T/C ([2]; 8 mg/kg i.v., day 1 and day 5) of the same compound?
The T/C was 229%.

What about the “Number of cured mice/Number of test mice” value [2, 7] of the same compound?
Its value is 0/6.

And the T/C [2, 7]?
Its T/C is 263%.

How did the IC50 [1] turn out when CC[C@@]1(O)C[C@H](O[C@H]2C[C@H](N3CCO[C@H](C)C3)[C@H](O)[C@H](C)O2)c2c(O)c3c(c(O)c2[C@H]1O)C(=O)c1cccc(O)c1C3=O [3'-Deamino-3'-[(2"R)-2"-methyl-4"-morpholino]-13-deoxo-10-hydroxycarminomycin] was run?
Its IC50 is 0.034 µg/mL (≈ 0.0567 µM).

Which results are given for CC[C@@]1(O)C[C@H](O[C@H]2C[C@H](N3CCO[C@@H](OC)C3)[C@H](O)[C@H](C)O2)c2c(O)c3c(c(O)c2[C@H]1O)C(=O)c1cccc(O)c1C3=O [3'-Deamino-3'-[(2"R)-2"-methoxy-4"-morpholino]-13-deoxo-10-hydroxycarminomycin]?
IC50 [1]: 0.009 µg/mL (≈ 0.0146 µM); Number of cured mice/Number of test mice [2, 3]: 0/6; T/C [2, 3]: 119%; Number of cured mice/Number of test mice [2, 4]: 0/6; T/C [2, 4]: 149%; Number of cured mice/Number of test mice [2, 5]: 0/6; T/C [2, 5]: 172%; Number of cured mice/Number of test mice ([2]; 1 mg/kg i.v., day 1 and day 5): 0/6; T/C ([2]; 1 mg/kg i.v., day 1 and day 5): 181%; Number of cured mice/Number of test mice [2, 8]: 0/6; T/C [2, 8]: 36%

For CC[C@@]1(O)C[C@H](O[C@H]2C[C@H](N3CCO[C@H](N=[N+]=[N-])C3)[C@H](O)[C@H](C)O2)c2c(O)c3c(c(O)c2[C@H]1O)C(=O)c1cccc(O)c1C3=O [3'-Deamino-3'-[(2"S)-2"-azido-4"-morpholino]-13-deoxo-10-hydroxycarminomycin], which IC50 [1] is on record?
Its IC50 is 0.024 µg/mL (≈ 0.0383 µM).

And the “Number of cured mice/Number of test mice” value [2, 5]?
The value was 0/6.

And the T/C [2, 5]?
Its T/C is 122%.

What about the “Number of cured mice/Number of test mice” value ([2]; 1 mg/kg i.v., day 1 and day 5) of the same compound?
The value was 0/6.

And the T/C ([2]; 1 mg/kg i.v., day 1 and day 5)?
The T/C was 163%.

And the “Number of cured mice/Number of test mice” value ([2]; 2 mg/kg i.v., day 1 and day 5)?
The value was 0/6.

What about the T/C ([2]; 2 mg/kg i.v., day 1 and day 5) of the same compound?
Its T/C is 231%.

What about the “Number of cured mice/Number of test mice” value [2, 9] of the same compound?
The value was 1/6.

And the T/C [2, 9]?
Its T/C is 355%.

What does the source list for CC[C@@]1(O)C[C@H](O[C@H]2C[C@H](N3CCOCC3)[C@H](O)[C@H](C)O2)c2c(O)c3c(c(O)c2[C@H]1O)C(=O)c1cccc(O)c1C3=O [3'Deamino-3'-morpholino-R20X2, reference compound]?
Number of cured mice/Number of test mice [2, 10]: 0/6; T/C [2, 10]: 110%; Number of cured mice/Number of test mice [2, 11]: 0/6; T/C [2, 11]: 143%; Number of cured mice/Number of test mice [2, 12]: 0/6; T/C [2, 12]: 162%; Number of cured mice/Number of test mice [2, 13]: 0/6; T/C [2, 13]: 173%; Number of cured mice/Number of test mice [2, 14]: 0/6; T/C [2, 14]: 189%; Number of cured mice/Number of test mice [2, 15]: 0/6; T/C [2, 15]: 189%; Number of cured mice/Number of test mice [2, 16]: 0/6; T/C [2, 16]: 240%; Number of cured mice/Number of test mice [2, 17]: 0/6; T/C [2, 17]: 135%
